The supplement of paper PMC4932681
Where a name gives a salt, the structure may show the parent alone.

Experiments:
BT-474 Tam1 [1] = assay: drug sensitivity score (DSS) (DSS (dimensionless)); higher = more sensitive; extreme values may be limits of the assay; conditions: 4-OH-tamoxifen in medium 1 µM; 72 h
Experimental: (§1)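 FIMM FO2B library drugs were tested at 5 concentrations (10,000-fold range) for 72 h, with CellTiter-Glo viability normalised to DMSO and benzethonium chloride controls. The Drug Sensitivity Score (DSS) is computed from the fitted logistic dose-response curve (area-based; 0 = inactive). Resistant lines and the 'in 1µM tamoxifen' arms were tested in 1 µM 4-OH-tamoxifen.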

BT-474 Tam2 [2] = assay: as above; conditions: 4-OH-tamoxifen in medium 1 µM; 72 h
Experimental: as §1

BT-474 [3] = assay: as above; conditions: 72 h
Experimental: as §1

MCF-7 Tam1 [4] = assay: as above; conditions: 4-OH-tamoxifen in medium 1 µM; 72 h
Experimental: as §1

MCF-7 [5] = assay: as above; conditions: 72 h
Experimental: as §1

T-47D Tam1 [6] = assay: as above; conditions: 4-OH-tamoxifen in medium 1 µM; 72 h
Experimental: as §1

T-47D Tam2 [7] = assay: as above; conditions: 4-OH-tamoxifen in medium 1 µM; 72 h
Experimental: as §1

T-47D [8] = assay: as above; conditions: 72 h
Experimental: as §1

ZR-75-1 Tam1 [9] = assay: as above; conditions: 4-OH-tamoxifen in medium 1 µM; 72 h
Experimental: as §1

ZR-75-1 Tam2 [10] = assay: as above; conditions: 4-OH-tamoxifen in medium 1 µM; 72 h
Experimental: as §1

ZR-75-1 [11] = assay: as above; conditions: 72 h
Experimental: as §1

BT-474 Tam1 [12] = assay: relative IC50 (midpoint of fitted logistic curve, plateau may be below 50% inhibition; CellTiter-Glo viability); higher = less potent; conditions: 4-OH-tamoxifen in medium 1 µM; 72 h
Experimental: (§2)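 FIMM FO2B library drugs were plated at 5 concentrations spanning a 10,000-fold range in 384-well plates. Cells were incubated for 72 h at 37 °C and viability was read by CellTiter-Glo, normalised to DMSO (0% inhibition) and 100 µM benzethonium chloride (100% inhibition). IC50 values come from logistic dose-response fits (Breeze pipeline). Tamoxifen-resistant lines and the 'in 1µM tamoxifen' parental arms were tested in medium with 1 µM 4-OH-tamoxifen.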

BT-474 Tam2 [13] = assay: as above; conditions: 4-OH-tamoxifen in medium 1 µM; 72 h
Experimental: as §2

BT-474 [14] = assay: as above; conditions: 72 h
Experimental: as §2

MCF-7 Tam1 [15] = assay: as above; conditions: 4-OH-tamoxifen in medium 1 µM; 72 h
Experimental: as §2

MCF-7 [16] = assay: as above; conditions: 72 h
Experimental: as §2

T-47D Tam1 [17] = assay: as above; conditions: 4-OH-tamoxifen in medium 1 µM; 72 h
Experimental: as §2

T-47D [18] = assay: as above; conditions: 72 h
Experimental: as §2

ZR-75-1 Tam1 [19] = assay: as above; conditions: 4-OH-tamoxifen in medium 1 µM; 72 h
Experimental: as §2

ZR-75-1 Tam2 [20] = assay: as above; conditions: 4-OH-tamoxifen in medium 1 µM; 72 h
Experimental: as §2

ZR-75-1 [21] = assay: as above; conditions: 72 h
Experimental: as §2

T-47D Tam2 [22] = assay: as above; conditions: 4-OH-tamoxifen in medium 1 µM; 72 h
Experimental: as §2

Structure (SMILES) | drug sensitivity score (BT-474 Tam1 [1]) | drug sensitivity score (BT-474 Tam2 [2]) | drug sensitivity score (BT-474 [3]; 4-OH-tamoxifen in medium 0 µM) | drug sensitivity score (BT-474 [3]; 4-OH-tamoxifen in medium 1 µM) | drug sensitivity score (MCF-7 Tam1 [4]) | drug sensitivity score (MCF-7 [5]; 4-OH-tamoxifen in medium 0 µM) | drug sensitivity score (MCF-7 [5]; 4-OH-tamoxifen in medium 1 µM) | drug sensitivity score (T-47D Tam1 [6]) | drug sensitivity score (T-47D Tam2 [7]) | drug sensitivity score (T-47D [8]; 4-OH-tamoxifen in medium 0 µM) | drug sensitivity score (T-47D [8]; 4-OH-tamoxifen in medium 1 µM) | drug sensitivity score (ZR-75-1 Tam1 [9]) | drug sensitivity score (ZR-75-1 Tam2 [10]) | drug sensitivity score (ZR-75-1 [11]; 4-OH-tamoxifen in medium 0 µM) | drug sensitivity score (ZR-75-1 [11]; 4-OH-tamoxifen in medium 1 µM) | relative IC50 (BT-474 Tam1 [12]) [µM] | relative IC50 (BT-474 Tam2 [13]) [µM] | relative IC50 (BT-474 [14]; 4-OH-tamoxifen in medium 0 µM) [µM] | relative IC50 (BT-474 [14]; 4-OH-tamoxifen in medium 1 µM) [µM] | relative IC50 (MCF-7 Tam1 [15]) [µM] | relative IC50 (MCF-7 [16]; 4-OH-tamoxifen in medium 0 µM) [µM] | relative IC50 (MCF-7 [16]; 4-OH-tamoxifen in medium 1 µM) [µM] | relative IC50 (T-47D Tam1 [17]) [µM] | relative IC50 (T-47D [18]; 4-OH-tamoxifen in medium 0 µM) [µM] | relative IC50 (ZR-75-1 Tam1 [19]) [µM] | relative IC50 (ZR-75-1 Tam2 [20]) [µM] | relative IC50 (ZR-75-1 [21]; 4-OH-tamoxifen in medium 0 µM) [µM] | relative IC50 (ZR-75-1 [21]; 4-OH-tamoxifen in medium 1 µM) [µM] | relative IC50 (T-47D Tam2 [22]) [µM] | relative IC50 (T-47D [18]; 4-OH-tamoxifen in medium 1 µM) [µM]
CC(=O)Nc1ccc(C(=O)Nc2ccccc2N)cc1 [Tacedinaline (CI-994)] | 0 | 0 | 0 | 0 | 0 | 0 | 0 | 0 | 0.132 | 0 | 0.0059 | 0 | 0 | 0 | 0 | > 1 | > 1 | > 1 | > 1 | > 1 | > 1 | > 1 | > 1 | > 1 | > 1 | > 1 | > 1 | > 1 |  | 
CC/C(=C(\c1ccccc1)c1ccc(OCCN(C)C)cc1)c1ccccc1 [Tamoxifen citrate] | 6.73 | 4.61 | 1.53 | 5.05 | 0.973 | 0 | 3.99 | 0.576 | 2.54 | 0 | 0 | 0.0116 | 0.865 | 0 | 1.69 | 2.39 | 3.61 | 3.47 | 3.2 |  |  | 3.48 |  | > 10 |  |  | > 10 | 3.54 | 3.29 | 
CCCC(CCC)C(=O)O [Valproic acid] | 0 | 0 | 0 | 0 | 0 | 0 | 0 | 0 | 1.73 | 0 | 0.0101 | 0 | 0 | 0 | 0 | > 10 | > 10 | > 10 | > 10 | > 10 | > 10 | > 10 | > 10 | > 10 | > 10 | > 10 | > 10 | > 10 |  | 
CCCS(=O)(=O)Nc1ccc(F)c(C(=O)c2c[nH]c3ncc(-c4ccc(Cl)cc4)cc23)c1F [Vemurafenib (PLX4032)] | 0 | 0 | 0 | 0.086 | 0 | 0 | 0 | 0 | 1.67 | 0 | 0 | 0 | 0 | 0 | 0 | > 10 | > 10 | > 10 |  | > 10 | > 10 | > 10 | > 10 | > 10 | > 10 | > 10 | > 10 |  |  | > 10
